Test in all cases: growth of human tumour cells (NCI), 48 h
Assay [1] concerns BT-549.
Assay [2] deals with CAKI-1.
Assay [3] relates to CCRF-CEM.
The test system of assay [4] is DU-145.
The test system of assay [5] is EKVX.
The test system of assay [6] is HCC 2998.
For assay [7], the system named is HL-60.
The test system of assay [8] is HT-29.
Assay [9] has as its system M14.
The test system of assay [10] is NCI-H226.
Assay [11] concerns OVCAR-4.
For assay [12], the system named is SF-295.
For assay [13], the system named is SF-539.
Assay [14] concerns SK-MEL-28.
In assay [15] the test system is SK-MEL-2.
In assay [16] the test system is SK-OV-3.
The subject of assay [17] is SN12C.
Assay [18] has as its system SNB-19.
In assay [19] the test system is UACC-62.
For assay [20], the system named is RXF 393.

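Briefly, cells in 96-well plates were exposed to five compound concentrations for 48 h, and endpoints were estimated by linear interpolation. GI50 is the concentration that inhibits growth by half.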 Activity calls are given as the source filed them. Rule as the data show it: active = GI50 up to about 1.1 µM and inactive = higher.

In the case of `COc1ccc2oc(S(=O)(=O)N3CC(CCl)c4ccc(N)cc43)cc2c1` (stereo not drawn), the GI50 in [1] was 2.31 µM (inactive); in assay [2], 0.0366 µM (active); in assay [3] it was 0.0385 µM (active); in [4], 0.0767 µM (active); in assay [5], 0.084 µM (active); in [6], 0.118 µM (active). In addition, the GI50 in assay [7] was 0.022 µM (active); in [8], 2.25 µM (inactive); in assay [9] it was 0.0393 µM (active); in [10] it was 0.0412 µM (active); in [11] it was 9.77 µM (inactive); in assay [12], 0.042 µM (active). Also, the GI50 in assay [13] is 0.0244 µM (active); in assay [14], 54.1 µM (inactive); in assay [15], < 0.0443 µM (active); in assay [16], 0.108 µM (active); in [17] it was 0.119 µM (active); in assay [18], 0.0608 µM (active). Further, in assay [19], the GI50 was 0.0246 µM (active).

For the molecule `CCOC(C)O[C@H]1C(=O)OCC1(C)C` (stereo partly drawn), the GI50 in [2], in assay [3], in [4], in assay [5], in assay [6] and in assay [7] was > 100 µM (inactive) in each case. The GI50 in assay [8], in assay [9], in [10], in assay [11], in assay [20] and in [12] was > 100 µM (inactive) throughout. Moreover, the GI50 in assay [13], in assay [14], in assay [15], in assay [16], in assay [18] and in [19] was > 100 µM (inactive) in each case.

For the molecule `C[C@@H]1OC(=O)C[C@H]2CC(=O)N(CCC3CN(S(=O)(=O)C(F)(F)F)c4ccccc43)C[C@@H]21` (stereo partly drawn), the GI50 in [2], in assay [3], in [4], in assay [5], in [6] and in assay [8] was > 100 µM (inactive) throughout. Also, the GI50 in assay [9], in [11], in assay [20], in assay [12], in assay [14] and in assay [15] was > 100 µM (inactive) throughout. The GI50 in [16], in assay [18] and in [19] was > 100 µM (inactive) throughout.

With `COC1OC(COC(=O)c2cc(O)c(O)c(O)c2)C(OC(=O)c2cc(O)c(O)c(O)c2)C(OC(=O)c2cc(O)c(O)c(O)c2)C1OC(=O)c1cc(O)c(O)c(O)c1` (stereo not drawn), the GI50 was 41.4 µM (inactive) in [2]; 12.8 µM (inactive) in assay [3]; 69.5 µM (inactive) in assay [4]; 25.9 µM (inactive) in assay [5]; 58.2 µM (inactive) in assay [6]; 18.4 µM (inactive) in assay [7]. The GI50 in assay [8] is 33.5 µM (inactive); in assay [9] it was 13.1 µM (inactive); in [10], 4.48 µM (inactive); in assay [11], 41.3 µM (inactive); in [20], 64.1 µM (inactive); in assay [12], 34.9 µM (inactive). For the same molecule, the GI50 in assay [13] was 12.4 µM (inactive); in [14], > 100 µM (inactive); in [15], > 100 µM (inactive); in assay [16] it was 4.78 µM (inactive); in [17], 27.2 µM (inactive); in assay [18], 43.4 µM (inactive). Further, the GI50 in [19] is 14.4 µM (inactive).

For `CSc1ccc(Nc2cc(=O)[nH]c(=O)[nH]2)cc1`, the GI50 in [1], in assay [2], in assay [3], in [4], in assay [6] and in assay [7] was > 100 µM (inactive) throughout. Further, the GI50 in assay [8], in [9], in assay [10], in [11], in assay [12] and in assay [13] was > 100 µM (inactive) throughout. Further, the GI50 in assay [14], in assay [15], in [16], in [17], in assay [18] and in [19] was > 100 µM (inactive) each time.

As to `CCOC(=O)C(NC(=O)Nc1ccccc1F)(OC)C(F)(F)F` (stereo not drawn), the GI50 was > 100 µM (inactive) in [1]; 44.5 µM (inactive) in [2]; > 100 µM (inactive) in assay [3]; > 100 µM (inactive) in assay [5]; > 100 µM (inactive) in [6]; > 100 µM (inactive) in assay [7]. The GI50 in assay [8], in assay [9], in [20], in assay [13], in assay [14] and in assay [15] was > 100 µM (inactive) in each case. Also, the GI50 in [16], in assay [17] and in assay [18] was > 100 µM (inactive) throughout.

Consider `O=P1(O)C=CC2(CCCC2)O1`, for which the GI50 in [4], in assay [5], in [6], in assay [7], in [8] and in assay [9] was > 100 µM (inactive) each time. Also, the GI50 in [11], in assay [12], in [13], in [14], in assay [15] and in assay [16] was > 100 µM (inactive) in each case. Further, the GI50 in assay [17], in assay [18] and in assay [19] was > 100 µM (inactive) each time.

`N#CC(C#N)=Cn1c(=S)[nH]c2ccccc21`: the GI50 in assay [2] is > 100 µM (inactive); in assay [3], > 100 µM (inactive); in assay [4], > 100 µM (inactive); in assay [5] it was 78.3 µM (inactive); in assay [6], > 100 µM (inactive); in [7], > 100 µM (inactive). The GI50 in [8], in assay [9], in assay [10], in assay [11], in assay [20] and in assay [12] was > 100 µM (inactive) in each case. For the same molecule, the GI50 in assay [13], in assay [14], in [15], in assay [16], in assay [17] and in assay [18] was > 100 µM (inactive) throughout. Also, in assay [19], the GI50 was > 100 µM (inactive).

In the case of `C[B@@-]1(c2ccc(C(F)(F)F)cc2)N[C@@H](Cc2ccccc2)C(=O)O1`, the GI50 in [1] was > 100 µM (inactive); in assay [3], > 100 µM (inactive); in [4] it was > 100 µM (inactive); in assay [5], > 100 µM (inactive); in assay [6] it was > 100 µM (inactive); in assay [7], 31.8 µM (inactive). Moreover, the GI50 in [8], in [9], in assay [10], in assay [11], in assay [12] and in assay [14] was > 100 µM (inactive) in each case. Further, the GI50 in [16], in assay [17], in [18] and in [19] was > 100 µM (inactive) throughout.

In the case of `COc1ccc(-c2onc(-c3c(C)cc(C)cc3C)c2C2=NCCN2)cc1`, the GI50 is 21.1 µM (inactive) in assay [2]; 34 µM (inactive) in assay [3]; 70 µM (inactive) in assay [5]; 44.1 µM (inactive) in [6]; 16.4 µM (inactive) in [7]; 25.5 µM (inactive) in assay [8]. The GI50 is 19.5 µM (inactive) in [9]; 17.8 µM (inactive) in assay [10]; > 100 µM (inactive) in assay [11]; 39.2 µM (inactive) in assay [20]; 17.6 µM (inactive) in assay [12]; 20 µM (inactive) in assay [13]. In addition, the GI50 in [14] is 22.8 µM (inactive); in [15], 48.2 µM (inactive); in [16], 14.2 µM (inactive); in [17], 48.6 µM (inactive); in assay [18], 33.9 µM (inactive); in assay [19], 36.3 µM (inactive).

Consider `C=C1CN=C(Nc2ccc(Cl)cc2)S1`, for which the GI50 in assay [2] is > 10 µM (inactive); in assay [3] it was 71 µM (inactive); in assay [4], > 100 µM (inactive); in assay [5] it was > 100 µM (inactive); in assay [6], > 100 µM (inactive); in assay [7] it was > 10 µM (inactive). The GI50 in assay [8], in assay [9], in [11], in [12], in assay [13] and in [14] was > 100 µM (inactive) in each case. Also, the GI50 in assay [15], in [16], in assay [17] and in assay [18] was > 100 µM (inactive) throughout.

The values are drawn from ChEMBL document CHEMBL1201862, “PubChem BioAssay data set” (2004).
